{"source": "patent US20240132431A1", "about": "“METHOD FOR ALKYLATING ACIDIC FUNCTIONAL GROUP” (Chugai Seiyaku Kabushiki Kaisha, priority 2021, published 2024)", "biological_target": "T1, Bcl-2 protein (Recombinant Human Bcl-2 Protein) (Homo sapiens, UniProt P10415)", "T1 construct": "purchased Novus NBP2-34889", "T1 sequence (P10415 whole entry)": "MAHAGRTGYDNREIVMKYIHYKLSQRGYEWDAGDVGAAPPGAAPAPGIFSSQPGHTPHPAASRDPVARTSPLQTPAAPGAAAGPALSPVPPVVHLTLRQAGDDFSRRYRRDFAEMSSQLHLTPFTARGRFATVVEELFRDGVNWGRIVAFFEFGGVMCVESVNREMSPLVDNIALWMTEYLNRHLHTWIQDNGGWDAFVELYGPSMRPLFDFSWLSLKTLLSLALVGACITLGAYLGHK", "assay": "Binding evaluation of mixture library compounds to Bcl-2 using AS-MS (affinity selection mass spectrometry)", "settings": "for ASMS ratio (%) n = 1 / ASMS ratio (%) n = 2: ASMS Ratio(%)=(A−C)/B×100; for ASMS ratio (%) n = 1: replicate n = 1; for ASMS ratio (%) n = 2: replicate n = 2", "procedure,_shortened": "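Affinity selection MS: Bcl-2 20 μM + 1200-cpd mixture, […]/cpd, Tris pH 7.4 buffer w/ Tween-20, DTT; 1 h 23° C dark; P-2 spin SEC; MeCN/MeOH extraction; RP LC/MS. ASMS Ratio(%) = (A−C)/B×100.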", "key": {"[1]": {"settings": "AS-MS on the mixture of 1200 library compounds"}, "[2]": {"settings": "AS-MS, mixture of 1200 compounds, Bcl-2"}}}
{"molecule": "CCOc1cccc(-c2cc(C(=O)N3CCN(c4ccc(C(=O)N(C)CC56CC7CC(CC(C7)C5)C6)nn4)CC3)cc(C(C)(C)C)c2)c1", "note": "[B3A015-01, N-(1-Adamantylmethyl)-6-[4-[3-tert-butyl-5-(3-ethoxyphenyl)benzoyl]piperazin-1-yl]-N-methylpyridazine-3-carboxamide]", "values": [{"measurement": "ASMS ratio (%) n = 1", "setting": "[1]", "result": 8.9, "unit": "%"}, {"measurement": "ASMS ratio (%) n = 2", "setting": "[1]", "result": 3.0, "unit": "%"}]}
{"molecule": "CCOc1cccc(-c2ccc(C(=O)N3CCN(c4ccc(C(=O)NS(=O)(=O)C(C)(C)C)nn4)CC3)cc2F)c1", "note": "[B2L005-01, N-tert-Butylsulfonyl-6-[4-[4-(3-ethoxyphenyl)-3-fluorobenzoyl]piperazin-1-yl]pyridazine-3-carboxamide]", "values": [{"measurement": "ASMS ratio (%)", "setting": "n = 1", "result": 0.0, "unit": "%"}, {"measurement": "ASMS ratio (%)", "setting": "n = 2", "result": 0.0, "unit": "%"}]}
{"molecule": "CCOc1cccc(-c2ccc(CN3CCN(c4ccc(C(=O)NS(C)(=O)=O)cc4)CC3)c3ccccc23)c1", "note": "[B2I065-01, 4-[4-[[4-(3-Ethoxyphenyl)naphthalen-1-yl]methyl]piperazin-1-yl]-N-methylsulfonylbenzamide]", "values": [{"measurement": "ASMS ratio (%)", "setting": "n = 1", "result": 0.0, "unit": "%"}, {"measurement": "ASMS ratio (%)", "setting": "n = 2", "result": 0.0, "unit": "%"}]}
{"molecule": "CCOc1cccc(-c2ccc(CN3CCN(c4ccc(C(=O)NS(=O)(=O)c5ccc(NCCSc6ccccc6)c(C(F)(F)F)c5)nn4)CC3)c(CC)c2)c1", "note": "[B2R075-01, 6-[4-[[4-(3-Ethoxyphenyl)-2-ethylphenyl]methyl]piperazin-1-yl]-N-[4-(2-phenylsulfanylethylamino)-3-(trifluoromethyl)phenyl]sulfonylpyridazine-3-carboxamide]", "values": [{"measurement": "ASMS ratio (%)", "setting": "n = 1", "result": 8.6, "unit": "%"}, {"measurement": "ASMS ratio (%)", "setting": "n = 2", "result": 0.0, "unit": "%"}]}
{"molecule": "CCOc1cncc(-c2ccc(CN3CCN(c4ccc(C(=O)NCC(F)(F)F)nn4)CC3)cc2F)c1", "note": "[B1K078-01, 6-[4-[[4-(5-Ethoxypyridin-3-yl)-3-fluorophenyl]methyl]piperazin-1-yl]-N-(2,2,2-trifluoroethyl)pyridazine-3-carboxamide]", "values": [{"measurement": "ASMS ratio (%) n = 1", "setting": "[2]", "result": 0.8, "unit": "%"}, {"measurement": "ASMS ratio (%) n = 2", "setting": "[2]", "result": "−0.2", "unit": "%"}]}
{"molecule": "CCOc1cccc(-c2cc(CN3CCN(c4ccc(C(=O)NCC(F)(F)F)cc4)CC3)cc(OC(C)C)c2)c1", "note": "[B1K057-01, 4-[4-[[3-(3-Ethoxyphenyl)-5-propan-2-yloxyphenyl]methyl]piperazin-1-yl]-N-(2,2,2-trifluoroethyl)benzamide]", "values": [{"measurement": "ASMS ratio (%) n = 1", "setting": "[2]", "result": 1.0, "unit": "%"}, {"measurement": "ASMS ratio (%) n = 2", "setting": "[2]", "result": "−2.6", "unit": "%"}]}
{"molecule": "CCOc1cccc(-c2cnn(-c3cc(C(=O)N4CCN(c5ccc(C(=O)N(CC)CC)nn5)CC4)cc(C(F)(F)F)c3)c2)c1", "note": "[B4J021-01, 6-[4-[3-[4-(3-Ethoxyphenyl)pyrazol-1-yl]-5-(trifluoromethyl)benzoyl]piperazin-1-yl]-N,N-diethylpyridazine-3-carboxamide]", "values": [{"measurement": "ASMS ratio (%) n = 1", "setting": "[1]", "result": 0.0, "unit": "%"}, {"measurement": "ASMS ratio (%) n = 2", "setting": "[1]", "result": 0.0, "unit": "%"}]}
{"molecule": "CCOc1cccc(-c2cc(CN3CCN(c4ccc(C(=O)NCC(F)(F)F)nn4)CC3)cc(OCC)c2)c1", "note": "[B1K081-01, 6-[4-[[3-Ethoxy-5-(3-ethoxyphenyl)phenyl]methyl]piperazin-1-yl]-N-(2,2,2-trifluoroethyl)pyridazine-3-carboxamide]", "values": [{"measurement": "ASMS ratio (%) n = 1", "setting": "[2]", "result": 2.3, "unit": "%"}, {"measurement": "ASMS ratio (%) n = 2", "setting": "[2]", "result": "−0.4", "unit": "%"}]}
{"molecule": "CCOc1cccc(-c2cc(CN3CCN(c4ccc(C(=O)NS(=O)(=O)C(C)(C)C)nn4)CC3)cc(OCC)c2)c1", "note": "[B2L081-01, N-tert-Butylsulfonyl-6-[4-[[3-ethoxy-5-(3-ethoxyphenyl)phenyl]methyl]piperazin-1-yl]pyridazine-3-carboxamide]", "values": [{"measurement": "ASMS ratio (%)", "setting": "n = 1", "result": 0.0, "unit": "%"}, {"measurement": "ASMS ratio (%)", "setting": "n = 2", "result": 0.0, "unit": "%"}]}
{"molecule": "CCOc1cccc(-c2cc(CN3CCN(c4ccc(C(=O)NS(=O)(=O)C(C)(C)C)cc4)CC3)cc(OC(C)C)c2)c1", "note": "[B2L057-01, N-tert-Butylsulfonyl-4-[4-[[3-(3-ethoxyphenyl)-5-propan-2-yloxyphenyl]methyl]piperazin-1-yl]benzamide]", "values": [{"measurement": "ASMS ratio (%)", "setting": "n = 1", "result": 0.0, "unit": "%"}, {"measurement": "ASMS ratio (%)", "setting": "n = 2", "result": 0.0, "unit": "%"}]}
{"molecule": "CCOc1cncc(-c2ccc(C(=O)N3CCN(c4ccc(C(=O)NS(=O)(=O)c5ccc(NCCSc6ccccc6)c(C(F)(F)F)c5)nn4)CC3)cc2C)c1", "note": "[B2R004-01, 6-[4-[4-(5-Ethoxypyridin-3-yl)-3-methylbenzoyl]piperazin-1-yl]-N-[4-(2-phenylsulfanylethylamino)-3-(trifluoromethyl)phenyl]sulfonylpyridazine-3-carboxamide]", "values": [{"measurement": "ASMS ratio (%)", "setting": "n = 1", "result": 0.0, "unit": "%"}, {"measurement": "ASMS ratio (%)", "setting": "n = 2", "result": 0.0, "unit": "%"}]}
{"molecule": "CCOc1cncc(-c2ccc(C(C)N3CCN(c4ccc(C(=O)N(C)CC56CC7CC(CC(C7)C5)C6)cc4)CC3)c(F)c2)c1", "note": "(stereo not drawn) [B3A100-01, N-(1-Adamantylmethyl)-4-[4-[1-[4-(5-ethoxypyridin-3-yl)-2-fluorophenyl]ethyl]piperazin-1-yl]-N-methylbenzamide]", "values": [{"measurement": "ASMS ratio (%) n = 1", "setting": "[1]", "result": "−39.8", "unit": "%"}, {"measurement": "ASMS ratio (%) n = 2", "setting": "[1]", "result": 0.0, "unit": "%"}]}
{"molecule": "CCOc1cncc(-c2csc(C(=O)N3CCN(c4ccc(C(=O)NS(=O)(=O)c5ccc(NCCSc6ccccc6)c([N+](=O)[O-])c5)cc4)CC3)c2)c1", "note": "[B2Q024-01, 4-[4-[4-(5-Ethoxypyridin-3-yl)thiophene-2-carbonyl]piperazin-1-yl]-N-[3-nitro-4-(2-phenylsulfanylethylamino)phenyl]sulfonylbenzamide]", "values": [{"measurement": "ASMS ratio (%) n = 1", "setting": "AS-MS, mixture library, Bcl-2", "result": 4.5, "unit": "%"}, {"measurement": "ASMS ratio (%) n = 2", "setting": "AS-MS, mixture library, Bcl-2", "result": 7.5, "unit": "%"}]}
{"molecule": "CCOc1cccc(-c2ccc(C(=O)N3CCN(c4ccc(C(=O)N(CC)CC)cc4)CC3)c3ccccc23)c1", "note": "[B4J035-01, 4-[4-[4-(3-Ethoxyphenyl)naphthalene-1-carbonyl]piperazin-1-yl]-N,N-diethylbenzamide]", "values": [{"measurement": "ASMS ratio (%) n = 1", "setting": "[1]", "result": 4.1, "unit": "%"}, {"measurement": "ASMS ratio (%) n = 2", "setting": "[1]", "result": 1.5, "unit": "%"}]}
{"molecule": "CCOc1cccc(-c2cc(C(=O)N3CCN(c4ccc(C(=O)NS(=O)(=O)c5ccc(NCCSc6ccccc6)c(C(F)(F)F)c5)nn4)CC3)cc(C(C)(C)C)c2)c1", "note": "[B2R015-01, 6-[4-[3-tert-Butyl-5-(3-ethoxyphenyl)benzoyl]piperazin-1-yl]-N-[4-(2-phenylsulfanylethylamino)-3-(trifluoromethyl)phenyl]sulfonylpyridazine-3-carboxamide]", "values": [{"measurement": "ASMS ratio (%)", "setting": "n = 1", "result": 9.7, "unit": "%"}, {"measurement": "ASMS ratio (%)", "setting": "n = 2", "result": 0.0, "unit": "%"}]}
{"molecule": "CCOc1cncc(C#Cc2ccccc2CN2CCN(c3ccc(C(=O)NS(C)(=O)=O)nn3)CC2)c1", "note": "[B2I096-01, 6-[4-[[2-[2-(5-Ethoxypyridin-3-yl)ethynyl]phenyl]methyl]piperazin-1-yl]-N-methylsulfonylpyridazine-3-carboxamide]", "values": [{"measurement": "ASMS ratio (%)", "setting": "n = 1", "result": 0.0, "unit": "%"}, {"measurement": "ASMS ratio (%)", "setting": "n = 2", "result": 0.0, "unit": "%"}]}
{"molecule": "CCOc1cccc(C#Cc2cc(C(=O)N3CCN(c4ccc(C(=O)NS(=O)(=O)c5ccc(NCCSc6ccccc6)c([N+](=O)[O-])c5)nn4)CC3)cc(C(F)(F)F)c2)c1", "note": "[B2Q019-01, 6-[4-[3-[2-(3-Ethoxyphenyl)ethynyl]-5-(trifluoromethyl)benzoyl]piperazin-1-yl]-N-[3-nitro-4-(2-phenylsulfanylethylamino)phenyl]sulfonylpyridazine-3-carboxamide]", "values": [{"measurement": "ASMS ratio (%) n = 1", "setting": "AS-MS, mixture library, Bcl-2", "result": 0.7, "unit": "%"}, {"measurement": "ASMS ratio (%) n = 2", "setting": "AS-MS, mixture library, Bcl-2", "result": 14.1, "unit": "%"}]}
{"molecule": "4-[4-[[4-(5-Ethoxypyridin-3-yl)-2-methoxyphenyl]methyl]piperazin-1-yl]-N-propylbenzamide [B1M099-01]", "values": [{"measurement": "ASMS ratio (%) n = 1", "setting": "[1]", "result": "−0.7", "unit": "%"}, {"measurement": "ASMS ratio (%) n = 2", "setting": "[1]", "result": "−0.3", "unit": "%"}]}
